The values below come from US20100233681A1, “METHOD FOR CELL BASED ASSAYS” (GE Healthcare UK Limited, priority 2006, published 2010).

The assay deals with U2OS osteosarcoma cells. Particulars: 250 ml of a 40 mM solution of histamine added after 20 seconds; control cells steady state 4500000 fluorescence units; 37° C.; FluoroMax-3 spectrofluorimeter.

Structures are written as SMILES.

Description: i) U2OS osteosarcoma cells were grown on collagen coated CYTODEX™ 3 microcarriers (GE Healthcare) according to the Manufacturer's instructions in DMEM media (Invitrogen) supplemented with 10% (v/v) fetal bovine serum (Sigma). Once the culture had attained the required volume and cell density the cells on beads were loaded with 1 μM Fluo-4 (Invitrogen). Microcarriers were allowed to settle, the growth media removed and replaced with calcium flux buffer (145 mM sodium chloride, 5 mM potassium chloride, 1 mM magnesium sulphate, 10 mM HEPES, 10 mM D-glucose, 1 mM calcium chloride containing 1% BSA, 1 μM Fluo-4 (Invitrogen) and the cells incubated for 40 minutes at 37° C. Beads were allowed to settle, the calcium flux buffer removed and replaced with DMEM media supplemented with 10% (v/v) fetal bovine serum and glycerol (10% v/v final concentration) was added as a cryo-preservative. Fluo-4 loaded cells on beads were divided into aliquots of 8×10^5 cells and the 1 ml aliquots frozen to −140° C. at a freezing rate of 1° C./minute. ii) To set up the cell assay, vials of cryo-preserved cells were rapidly thawed in a water bath at 37° C. and cells on bead suspensions placed in 1.5 ml spectrofluorimeter cuvettes and equilibrated at 37° C. for 30 minutes. Fluorescence measurements were acquired over time using a FluoroMax-3 spectrofluorimeter using excitation and emission settings for Fluo-4.

As to `NCCc1c[nH]cn1` [histamine], the “Fluo-4 fluorescence after addition of histamine (intracellular calcium release)” value is given as 5170000 fluorescence units.
